Organism: Rattus norvegicus
Experiment: Open TG-GATES - Regimen: Daily Repeat
Format: toxicity, organism-based, Sprague-Dawley
Design: regimen Daily Repeat, gender Male, age 6 weeks
Conditions: in vivo, po, 300 mg/kg, route gavage, dose level Middle; for APTT / Bas / Eos / Fbg / Hb / Ht / Lym / MCH / MCHC / MCV / Mono / Neu / PT / Plat / RBC / Ret / WBC: tissue Blood; for KIDNEY_L / KIDNEY_R / KIDNEY_TOTAL: tissue Kidney; for LIVER: tissue Liver; for A/G / ALP / ALT / AST / BUN / CRE / Ca / Cl / DBIL / GLC / IP / K / LDH / Na / PL / RALB / TBIL / TC / TG / TP / gamma-GTP: tissue Plasma

`O=C(N[C@H](CO)[C@H](O)c1ccc([N+](=O)[O-])cc1)C(Cl)Cl` [CHLORAMPHENICOL] showed a TERMINAL_BW (72 h, time 3 day) of 251.2 g, an APTT (72 h, time 3 day) of 16.2 s and a Bas (72 h, time 3 day) of 0%. The Eos (72 h, time 3 day) was 1%, the Fbg (72 h, time 3 day) was 294.6 mg/dL and the Hb (72 h, time 3 day) was 13.3 g/dL. It also gave a Ht (72 h, time 3 day) of 40.8%, a Lym (72 h, time 3 day) of 83.4% and an MCH (72 h, time 3 day) of 21.2 pg. For the same compound, the MCHC (72 h, time 3 day) was 32.6%, the MCV (72 h, time 3 day) was 65.1 fL and the Mono (72 h, time 3 day) was 3.4%. The Neu (72 h, time 3 day) was 11.6%, the PT (72 h, time 3 day) was 14.4 s and the Plat (72 h, time 3 day) was 128.6 x10_4/uL. It also gave an RBC (72 h, time 3 day) of 627.6 x10_4/ul, a Ret (72 h, time 3 day) of 4.4% and a WBC (72 h, time 3 day) of 77.4 x10_2/uL. For the same compound, the KIDNEY_L (72 h, time 3 day) was 1.1 g, the KIDNEY_R (72 h, time 3 day) was 1.1 g and the KIDNEY_TOTAL (72 h, time 3 day) was 2.1 g. The LIVER (72 h, time 3 day) was 12.1 g, the A/G (72 h, time 3 day) was 0.9 and the ALP (72 h, time 3 day) was 1601.8 IU/L. For the same compound, the ALT (72 h, time 3 day) was 49.4 IU/L, the AST (72 h, time 3 day) was 72.8 IU/L and the BUN (72 h, time 3 day) was 16.6 mg/dL. For the same compound, the CRE (72 h, time 3 day) was 0.2 mg/dL, the Ca (72 h, time 3 day) was 10.9 mg/dL and the Cl (72 h, time 3 day) was 105.6 meq/L. The DBIL (72 h, time 3 day) was 0.01 mg/dL, the GLC (72 h, time 3 day) was 169.2 mg/dL and the IP (72 h, time 3 day) was 7.6 mg/dL. For the same compound, the K (72 h, time 3 day) was 4.2 meq/L, the LDH (72 h, time 3 day) was 84.2 IU/L and the Na (72 h, time 3 day) was 141.2 meq/L. The PL (72 h, time 3 day) was 150.4 mg/dL, the RALB (72 h, time 3 day) was 2.6 g/dL and the TBIL (72 h, time 3 day) was 0.052 mg/dL. It also gave a TC (72 h, time 3 day) of 88.4 mg/dL, a TG (72 h, time 3 day) of 66.6 mg/dL and a TP (72 h, time 3 day) of 5.6 g/dL. It also gave a gamma-GTP (72 h, time 3 day) of 1 IU/L, a TERMINAL_BW ([…], time 7 day) of 277.3 g and a TERMINAL_BW ([…], time 14 day) of 349.1 g. The TERMINAL_BW ([…], time 28 day) was 411.6 g, the APTT ([…], time 7 day) was 16.9 s and the Bas ([…], time 7 day) was 0%. It also gave an Eos ([…], time 7 day) of 1%, a Fbg ([…], time 7 day) of 324 mg/dL and a Hb ([…], time 7 day) of 13.7 g/dL. It also gave a Ht ([…], time 7 day) of 42.3%, a Lym ([…], time 7 day) of 78.2% and an MCH ([…], time 7 day) of 20.5 pg. For the same compound, the MCHC ([…], time 7 day) was 32.4%, the MCV ([…], time 7 day) was 63.3 fL and the Mono ([…], time 7 day) was 3.6%. The Neu ([…], time 7 day) was 17%, the PT ([…], time 7 day) was 14.5 s and the Plat ([…], time 7 day) was 120.6 x10_4/uL. It also gave an RBC ([…], time 7 day) of 668.6 x10_4/ul, a Ret ([…], time 7 day) of 4.8% and a WBC ([…], time 7 day) of 66.9 x10_2/uL. It also gave an APTT ([…], time 14 day) of 14.9 s, a Bas ([…], time 14 day) of 0% and an Eos ([…], time 14 day) of 1.4%. The Fbg ([…], time 14 day) was 307 mg/dL, the Hb ([…], time 14 day) was 14.2 g/dL and the Ht ([…], time 14 day) was 43.7%. The Lym ([…], time 14 day) was 84.8%, the MCH ([…], time 14 day) was 20.5 pg and the MCHC ([…], time 14 day) was 32.5%. The MCV ([…], time 14 day) was 63.1 fL, the Mono ([…], time 14 day) was 2.2% and the Neu ([…], time 14 day) was 11.4%. It also gave a PT ([…], time 14 day) of 14.8 s, a Plat ([…], time 14 day) of 123.5 x10_4/uL and an RBC ([…], time 14 day) of 692.8 x10_4/ul. For the same compound, the Ret ([…], time 14 day) was 4.7%, the WBC ([…], time 14 day) was 80 x10_2/uL and the APTT ([…], time 28 day) was 15.7 s. For the same compound, the Bas ([…], time 28 day) was 0%, the Eos ([…], time 28 day) was 1.2% and the Fbg ([…], time 28 day) was 296.2 mg/dL. It also gave a Hb ([…], time 28 day) of 15.1 g/dL, a Ht ([…], time 28 day) of 44.3% and a Lym ([…], time 28 day) of 86.8%. For the same compound, the MCH ([…], time 28 day) was 19.7 pg, the MCHC ([…], time 28 day) was 34.1% and the MCV ([…], time 28 day) was 57.8 fL. It also gave a Mono ([…], time 28 day) of 1%, a Neu ([…], time 28 day) of 10% and a PT ([…], time 28 day) of 14.7 s. It also gave a Plat ([…], time 28 day) of 110.4 x10_4/uL, an RBC ([…], time 28 day) of 768.8 x10_4/ul and a Ret ([…], time 28 day) of 2.1%. The WBC ([…], time 28 day) was 69.9 x10_2/uL, the KIDNEY_L ([…], time 7 day) was 1.2 g and the KIDNEY_R ([…], time 7 day) was 1.2 g. For the same compound, the KIDNEY_TOTAL ([…], time 7 day) was 2.4 g, the KIDNEY_L ([…], time 14 day) was 1.3 g and the KIDNEY_R ([…], time 14 day) was 1.3 g. It also gave a KIDNEY_TOTAL ([…], time 14 day) of 2.6 g, a KIDNEY_L ([…], time 28 day) of 1.6 g and a KIDNEY_R ([…], time 28 day) of 1.5 g. The KIDNEY_TOTAL ([…], time 28 day) was 3.1 g, the LIVER ([…], time 7 day) was 14 g and the LIVER ([…], time 14 day) was 16.9 g. For the same compound, the LIVER ([…], time 28 day) was 18.5 g, the A/G ([…], time 7 day) was 0.9 and the ALP ([…], time 7 day) was 1464.2 IU/L. It also gave an ALT ([…], time 7 day) of 56.8 IU/L, an AST ([…], time 7 day) of 72.8 IU/L and a BUN ([…], time 7 day) of 15 mg/dL. The CRE ([…], time 7 day) was 0.2 mg/dL, the Ca ([…], time 7 day) was 11.3 mg/dL and the Cl ([…], time 7 day) was 106 meq/L. It also gave a DBIL ([…], time 7 day) of 0.02 mg/dL, a GLC ([…], time 7 day) of 181.2 mg/dL and an IP ([…], time 7 day) of 7.9 mg/dL. For the same compound, the K ([…], time 7 day) was 4 meq/L, the LDH ([…], time 7 day) was 58.4 IU/L and the Na ([…], time 7 day) was 144.8 meq/L. The PL ([…], time 7 day) was 148.8 mg/dL, the RALB ([…], time 7 day) was 2.7 g/dL and the TBIL ([…], time 7 day) was 0.054 mg/dL. The TC ([…], time 7 day) was 74 mg/dL, the TG ([…], time 7 day) was 102.4 mg/dL and the TP ([…], time 7 day) was 5.7 g/dL. For the same compound, the gamma-GTP ([…], time 7 day) was 1 IU/L, the A/G ([…], time 14 day) was 0.8 and the ALP ([…], time 14 day) was 1504.6 IU/L. The ALT ([…], time 14 day) was 51.8 IU/L, the AST ([…], time 14 day) was 75.2 IU/L and the BUN ([…], time 14 day) was 17.4 mg/dL. It also gave a CRE ([…], time 14 day) of 0.2 mg/dL, a Ca ([…], time 14 day) of 11.3 mg/dL and a Cl ([…], time 14 day) of 105.2 meq/L. The DBIL ([…], time 14 day) was 0.024 mg/dL, the GLC ([…], time 14 day) was 198.2 mg/dL and the IP ([…], time 14 day) was 7.1 mg/dL. It also gave a K ([…], time 14 day) of 4 meq/L, an LDH ([…], time 14 day) of 66.8 IU/L and a Na ([…], time 14 day) of 144 meq/L. It also gave a PL ([…], time 14 day) of 137.6 mg/dL, an RALB ([…], time 14 day) of 2.6 g/dL and a TBIL ([…], time 14 day) of 0.052 mg/dL. The TC ([…], time 14 day) was 63.4 mg/dL, the TG ([…], time 14 day) was 93.6 mg/dL and the TP ([…], time 14 day) was 5.8 g/dL. For the same compound, the gamma-GTP ([…], time 14 day) was 1 IU/L, the A/G ([…], time 28 day) was 0.8 and the ALP ([…], time 28 day) was 1176.8 IU/L. It also gave an ALT ([…], time 28 day) of 43 IU/L, an AST ([…], time 28 day) of 63.8 IU/L and a BUN ([…], time 28 day) of 15 mg/dL. For the same compound, the CRE ([…], time 28 day) was 0.2 mg/dL, the Ca ([…], time 28 day) was 10.8 mg/dL and the Cl ([…], time 28 day) was 105 meq/L. For the same compound, the DBIL ([…], time 28 day) was 0.024 mg/dL, the GLC ([…], time 28 day) was 172.8 mg/dL and the IP ([…], time 28 day) was 6.5 mg/dL. The K ([…], time 28 day) was 3.5 meq/L, the LDH ([…], time 28 day) was 49.2 IU/L and the Na ([…], time 28 day) was 144.6 meq/L. It also gave a PL ([…], time 28 day) of 141 mg/dL, an RALB ([…], time 28 day) of 2.8 g/dL and a TBIL ([…], time 28 day) of 0.064 mg/dL. The TC ([…], time 28 day) was 68 mg/dL, the TG ([…], time 28 day) was 69.4 mg/dL and the TP ([…], time 28 day) was 6.1 g/dL. The gamma-GTP ([…], time 28 day) was 1.2 IU/L.
